# Experimental data from ChEMBL document CHEMBL3885881, “DrugMatrix”.
# Species: Rattus norvegicus
# Test: DrugMatrix - Regimen: Daily Repeat
# Assay type: toxicity, organism-based, Sprague-Dawley
# Parameters: regimen Daily Repeat, gender Male, age 6-8 weeks
# Settings: in vivo, po, route oral GAVAGE, […]; for ABSOLUTE BASOPHIL / ABSOLUTE EOSINOPHIL / ABSOLUTE LYMPHOCYTE / ABSOLUTE MONOCYTE / ABSOLUTE SEGMENTED NEUTROPHIL / BASOPHIL / EOSINOPHIL / ERYTHROCYTE COUNT / HEMATOCRIT / HEMOGLOBIN / LEUKOCYTE COUNT / LYMPHOCYTE / MEAN CORPUSCULAR HEMOGLOBIN / MEAN CORPUSCULAR HEMOGLOBIN CONCENTRATION / MEAN CORPUSCULAR VOLUME / MONOCYTE / NEUTROPHIL / NUCLEATED RED BLOOD CELLS / PLATELET COUNT: tissue Blood; for ALANINE AMINOTRANSFERASE / ALBUMIN / ALKALINE PHOSPHATASE / ASPARTATE AMINOTRANSFERASE / BLOOD UREA NITROGEN / CARBON DIOXIDE / CHLORIDE / CHOLESTEROL / CREATINE PHOSPHOKINASE / CREATININE / GLUCOSE / LACTATE DEHYDROGENASE / LIPASE / PHOSPHORUS / POTASSIUM / SODIUM / TOTAL BILIRUBIN / TOTAL PROTEIN / URIC ACID: tissue Plasma
# [1] = 0 mg/kg, 72 h, dose level Control, time 3 day
# [2] = 0 mg/kg, 120 h, dose level Control, time 5 day
# [3] = 50 mg/kg, 72 h, dose level Low, time 3 day
compound,measurement,setting,value
Oc1ncnc2[nH]ncc12 [ALLOPURINOL],ABSOLUTE BASOPHIL,[1],0 CELLS/uL
same,ABSOLUTE EOSINOPHIL,[1],0 CELLS/uL
same,ABSOLUTE LYMPHOCYTE,[1],14687.67 CELLS/uL
same,ABSOLUTE MONOCYTE,[1],164 CELLS/uL
same,ABSOLUTE SEGMENTED NEUTROPHIL,[1],1748.33 CELLS/uL
same,BASOPHIL,[1],0%
same,EOSINOPHIL,[1],0%
same,ERYTHROCYTE COUNT,[1],5.51 x10E6/uL
same,HEMATOCRIT,[1],33.68%
same,HEMOGLOBIN,[1],13.4 G/DL
same,LEUKOCYTE COUNT,[1],16.6 x10E3/uL
same,LYMPHOCYTE,[1],88.83%
same,MEAN CORPUSCULAR HEMOGLOBIN,[1],24.47 pg
same,MEAN CORPUSCULAR HEMOGLOBIN CONCENTRATION,[1],39.82 G/DL
same,MEAN CORPUSCULAR VOLUME,[1],61.23 fL
same,MONOCYTE,[1],0.83%
same,NEUTROPHIL,[1],10.33%
same,NUCLEATED RED BLOOD CELLS,[1],0 /100WBC
same,PLATELET COUNT,[1],1329.67 x10E3/uL
same,ALANINE AMINOTRANSFERASE,[1],61.33 u/L
same,ALBUMIN,[1],4.18 G/DL
same,ALKALINE PHOSPHATASE,[1],332.5 u/L
same,ASPARTATE AMINOTRANSFERASE,[1],98.33 u/L
same,BLOOD UREA NITROGEN,[1],15.83 mg/dL
same,CARBON DIOXIDE,[1],27.83 mmol/L
same,CHLORIDE,[1],100 MEQ/L
same,CHOLESTEROL,[1],76.17 mg/dL
same,CREATINE PHOSPHOKINASE,[1],729.17 u/L
same,CREATININE,[1],0.21 mg/dL
same,GLUCOSE,[1],151.83 mg/dL
same,LACTATE DEHYDROGENASE,[1],484.67 u/L
same,LIPASE,[1],10 u/L
same,PHOSPHORUS,[1],11.3 mg/dL
same,POTASSIUM,[1],6.1 MEQ/L
same,SODIUM,[1],142.9 MEQ/L
same,TOTAL BILIRUBIN,[1],0.23 mg/dL
same,TOTAL PROTEIN,[1],5.68 G/DL
same,URIC ACID,[1],1.75 mg/dL
same,ABSOLUTE BASOPHIL,[2],0 CELLS/uL
same,ABSOLUTE EOSINOPHIL,[2],58.67 CELLS/uL
same,ABSOLUTE LYMPHOCYTE,[2],15950.83 CELLS/uL
same,ABSOLUTE MONOCYTE,[2],172.5 CELLS/uL
same,ABSOLUTE SEGMENTED NEUTROPHIL,[2],2551.33 CELLS/uL
same,BASOPHIL,[2],0%
same,EOSINOPHIL,[2],0.33%
same,ERYTHROCYTE COUNT,[2],5.5 x10E6/uL
same,HEMATOCRIT,[2],34.05%
same,HEMOGLOBIN,[2],13.42 G/DL
same,LEUKOCYTE COUNT,[2],18.73 x10E3/uL
same,LYMPHOCYTE,[2],84.5%
same,MEAN CORPUSCULAR HEMOGLOBIN,[2],24.42 pg
same,MEAN CORPUSCULAR HEMOGLOBIN CONCENTRATION,[2],39.42 G/DL
same,MEAN CORPUSCULAR VOLUME,[2],61.97 fL
same,MONOCYTE,[2],1%
same,NEUTROPHIL,[2],14.17%
same,NUCLEATED RED BLOOD CELLS,[2],0.33 /100WBC
same,PLATELET COUNT,[2],1143.17 x10E3/uL
same,ALANINE AMINOTRANSFERASE,[2],57 u/L
same,ALBUMIN,[2],4.17 G/DL
same,ALKALINE PHOSPHATASE,[2],347.33 u/L
same,ASPARTATE AMINOTRANSFERASE,[2],93.67 u/L
same,BLOOD UREA NITROGEN,[2],15.67 mg/dL
same,CARBON DIOXIDE,[2],27.17 mmol/L
same,CHLORIDE,[2],104.33 MEQ/L
same,CHOLESTEROL,[2],69.5 mg/dL
same,CREATINE PHOSPHOKINASE,[2],317.17 u/L
same,CREATININE,[2],0.2 mg/dL
same,GLUCOSE,[2],162.33 mg/dL
same,LACTATE DEHYDROGENASE,[2],408.67 u/L
same,LIPASE,[2],10.17 u/L
same,PHOSPHORUS,[2],11.08 mg/dL
same,POTASSIUM,[2],6.36 MEQ/L
same,SODIUM,[2],146.07 MEQ/L
same,TOTAL BILIRUBIN,[2],0.22 mg/dL
same,TOTAL PROTEIN,[2],5.92 G/DL
same,URIC ACID,[2],1.47 mg/dL
same,ABSOLUTE BASOPHIL,[3],0 CELLS/uL
same,ABSOLUTE EOSINOPHIL,[3],127 CELLS/uL
same,ABSOLUTE LYMPHOCYTE,[3],14701 CELLS/uL
same,ABSOLUTE MONOCYTE,[3],340.67 CELLS/uL
same,ABSOLUTE SEGMENTED NEUTROPHIL,[3],1864.67 CELLS/uL
same,BASOPHIL,[3],0%
same,EOSINOPHIL,[3],1%
same,ERYTHROCYTE COUNT,[3],5.8 x10E6/uL
same,HEMATOCRIT,[3],35.57%
same,HEMOGLOBIN,[3],14.13 G/DL
same,LEUKOCYTE COUNT,[3],17.03 x10E3/uL
same,LYMPHOCYTE,[3],86.33%
same,MEAN CORPUSCULAR HEMOGLOBIN,[3],24.4 pg
same,MEAN CORPUSCULAR HEMOGLOBIN CONCENTRATION,[3],39.77 G/DL
same,MEAN CORPUSCULAR VOLUME,[3],61.43 fL
same,MONOCYTE,[3],2%
same,NEUTROPHIL,[3],10.67%
same,NUCLEATED RED BLOOD CELLS,[3],0 /100WBC
same,PLATELET COUNT,[3],1335 x10E3/uL
same,ALANINE AMINOTRANSFERASE,[3],47.67 u/L
same,ALBUMIN,[3],3.9 G/DL
same,ALKALINE PHOSPHATASE,[3],391.33 u/L
same,ASPARTATE AMINOTRANSFERASE,[3],101 u/L
same,BLOOD UREA NITROGEN,[3],54.33 mg/dL
same,CARBON DIOXIDE,[3],31.33 mmol/L
same,CHLORIDE,[3],101.67 MEQ/L
same,CHOLESTEROL,[3],88.33 mg/dL
same,CREATINE PHOSPHOKINASE,[3],732.33 u/L
same,CREATININE,[3],1.13 mg/dL
same,GLUCOSE,[3],142 mg/dL
same,LACTATE DEHYDROGENASE,[3],354.67 u/L
same,LIPASE,[3],10 u/L
same,PHOSPHORUS,[3],10.1 mg/dL
same,POTASSIUM,[3],6.99 MEQ/L
same,SODIUM,[3],146.8 MEQ/L
same,TOTAL BILIRUBIN,[3],0.2 mg/dL
same,TOTAL PROTEIN,[3],5.93 G/DL
same,URIC ACID,[3],0.2 mg/dL
